Where two headings read alike, the source gives them in different places.
How the values were obtained:
[1] = molecular target: T1, BSA (Bos taurus, UniProt P02769); set-up: Intact protein LC/MS covalent labelling, fragments in pools of five, 200 uM each, 4 °C; settings: 24 h, 4 °C, pool of five; 200 µM; covalent
T1 construct: gene ALB

[2] = molecular target: T2, NUDT7 (Homo sapiens, UniProt P0C024); set-up: Intact protein LC/MS covalent labelling, fragments in pools of five, 200 uM each, 4 °C; settings: 24 h, 4 °C, pool of five; 200 µM; covalent
T2 construct: residues 14-235, E. coli, pNIC28-Bsa4, N-terminal His6 tag removed by TEV, construct 26672 Da
T2 sequence (P0C024 14-235): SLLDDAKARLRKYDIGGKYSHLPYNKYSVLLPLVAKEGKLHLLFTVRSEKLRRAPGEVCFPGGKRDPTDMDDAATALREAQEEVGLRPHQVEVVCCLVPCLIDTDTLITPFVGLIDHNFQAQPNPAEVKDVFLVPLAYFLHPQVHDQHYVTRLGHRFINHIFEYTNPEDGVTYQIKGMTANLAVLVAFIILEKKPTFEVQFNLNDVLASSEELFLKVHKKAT

[3] = molecular target: T3, OTUB2 (OTUB2A) (Homo sapiens, UniProt Q96DC9); set-up: Intact protein LC/MS covalent labelling, fragments in pools of five, 200 uM each, 4 °C; settings: 24 h, 4 °C, pool of five; 200 µM; covalent
T3 construct: full length residues 1-234, E. coli BL21(DE3)-R3, His tag removed by TEV, construct 27312 Da
T3 sequence (Q96DC9 1-234): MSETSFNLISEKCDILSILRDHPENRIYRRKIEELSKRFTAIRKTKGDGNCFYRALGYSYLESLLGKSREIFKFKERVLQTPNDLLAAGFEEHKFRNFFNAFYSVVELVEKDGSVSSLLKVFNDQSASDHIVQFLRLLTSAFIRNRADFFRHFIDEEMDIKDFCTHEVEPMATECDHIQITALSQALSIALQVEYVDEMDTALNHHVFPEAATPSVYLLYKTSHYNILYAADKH

[4] = molecular target: T4, PCAF (Homo sapiens, UniProt Q92831); set-up: Intact protein LC/MS covalent labelling, fragments in pools of five, 200 uM each, 4 °C; settings: 24 h, 4 °C, pool of five; 200 µM; covalent
T4 construct: gene KAT2B
T4 sequence (Q92831 whole entry, the tested form may be a part): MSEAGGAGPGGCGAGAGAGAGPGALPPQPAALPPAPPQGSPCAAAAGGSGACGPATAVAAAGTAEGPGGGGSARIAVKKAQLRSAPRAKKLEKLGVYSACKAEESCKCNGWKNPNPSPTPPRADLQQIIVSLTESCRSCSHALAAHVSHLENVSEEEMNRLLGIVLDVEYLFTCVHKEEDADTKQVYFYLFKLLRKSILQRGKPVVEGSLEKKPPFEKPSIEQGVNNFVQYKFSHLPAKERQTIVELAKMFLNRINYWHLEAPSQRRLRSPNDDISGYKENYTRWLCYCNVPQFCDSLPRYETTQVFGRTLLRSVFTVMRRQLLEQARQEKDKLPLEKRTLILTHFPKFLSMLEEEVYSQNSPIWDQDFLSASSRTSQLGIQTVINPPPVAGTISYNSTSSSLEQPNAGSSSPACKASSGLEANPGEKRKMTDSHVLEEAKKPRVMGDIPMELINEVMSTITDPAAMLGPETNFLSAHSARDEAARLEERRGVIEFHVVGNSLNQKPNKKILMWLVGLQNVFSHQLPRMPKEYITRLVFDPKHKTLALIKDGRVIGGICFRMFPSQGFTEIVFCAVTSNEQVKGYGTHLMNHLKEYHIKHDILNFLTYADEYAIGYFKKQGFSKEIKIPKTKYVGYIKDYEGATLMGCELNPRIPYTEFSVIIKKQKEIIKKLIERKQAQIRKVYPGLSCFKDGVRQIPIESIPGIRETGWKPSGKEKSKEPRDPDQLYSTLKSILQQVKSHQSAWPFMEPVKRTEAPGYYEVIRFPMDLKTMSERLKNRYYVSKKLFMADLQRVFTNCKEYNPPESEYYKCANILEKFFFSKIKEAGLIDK

[5] = in vitro; set-up: species or system CCD841, HEK293; settings: human, hb2 cells, read-out: HB-2 Cells Viability (%)
[6] = in vitro; set-up: species or system HB2, HEK293; settings: human, ccd841 cells
[7] = in vitro; set-up: species or system HB2, CCD841; settings: human, hek293 cells

T1 sequence (P02769 whole entry, the tested form may be a part): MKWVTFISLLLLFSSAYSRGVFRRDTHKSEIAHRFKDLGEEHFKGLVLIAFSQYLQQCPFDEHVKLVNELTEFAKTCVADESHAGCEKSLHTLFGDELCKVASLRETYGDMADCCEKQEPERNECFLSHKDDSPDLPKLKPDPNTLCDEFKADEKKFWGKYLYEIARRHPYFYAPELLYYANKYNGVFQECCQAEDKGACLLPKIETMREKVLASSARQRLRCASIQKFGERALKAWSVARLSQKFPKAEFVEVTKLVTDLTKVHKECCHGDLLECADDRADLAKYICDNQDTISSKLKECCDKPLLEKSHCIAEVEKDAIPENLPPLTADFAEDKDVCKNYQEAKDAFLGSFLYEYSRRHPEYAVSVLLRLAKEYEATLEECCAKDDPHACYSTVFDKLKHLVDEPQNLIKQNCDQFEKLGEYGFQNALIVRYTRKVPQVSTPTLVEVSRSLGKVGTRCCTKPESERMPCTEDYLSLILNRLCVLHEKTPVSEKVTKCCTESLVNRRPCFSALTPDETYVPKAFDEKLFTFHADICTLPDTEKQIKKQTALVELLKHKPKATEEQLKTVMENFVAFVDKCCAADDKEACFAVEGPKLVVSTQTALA

Structure (SMILES) | BSA [1] | NUDT7 [2] | OTUB2 [3] | PCAF [4] | viability at 48 h, 10 µM [5] [%] | viability at 48 h, 10 µM [6] [%] | viability at 48 h, 10 µM [7] [%]
CC1CCN(C(=O)CCl)C2CCCCC12 (stereo not drawn) [PCM-0102831] | 0 | 0.37 | 0 | 0 | 14.7 | 6.8 | 5.6
O=C(CCl)N(C1CC1)C1CCS(=O)(=O)C1 (stereo not drawn) [PCM-0102832] | 0 | 0 | 0.43 | 0 | 88.7 | 85.1 | 67.9
CC(C)(C)N(Cc1cccc(F)c1)C(=O)CCl [PCM-0102833] | 0 | 0 | 0 | 0 | 67.5 | 25.3 | 22.2
C=CC(=O)NC(=O)NCc1ccccc1 [PCM-0102834] | 0 | 0.35 | 0 | 0 | 23 | 57.4 | 17.9
O=C(CCl)N1CCN(S(=O)(=O)c2ccc3ccccc3c2)CC1 [PCM-0102836] | 0 | 0 | 0 | 0 | 11.7 | 67.7 | 46.3
O=C(CCl)N1CCN(S(=O)(=O)c2ccccc2Cl)CC1 [PCM-0102837] | 0 | 0.18 | 0 | 0 | 4.7 | 46.9 | 6
CC(=O)c1sc(NC(=O)CCl)nc1C [PCM-0102838] | 0 | 0.12 | 0 | 0 | 96 | 92.1 | 87.2
C=CC(=O)NCc1ccc(F)cc1 [PCM-0102839] | 0 | 0 | 0 | 0 | 105 | 111 | 87.3
CN(C)c1ccc(Cl)cc1NC(=O)CCl [PCM-0102840] | 0 | 0.14 | 0.06 | 0.23 | 29.2 | 85.9 | 63.2
COC(=O)C1Cc2ccccc2CN1C(=O)CCl (stereo not drawn) [PCM-0102841] | 0 | 0.19 | 0.41 | 0 | 96.4 | 77.3 | 60.3
C=CC(=O)N1CC(C(=O)NC)C1 [PCM-0102843] | 0.23 | 0 | 0.1 | 0 | 104 | 114 | 94.1
C=CC(=O)N1CCC(N)CC1.Cl [PCM-0102844] | 0 | 0.2 | 0 | 0.25 | 109 | 98.2 | 124
C=CC(=O)Nc1nc(-c2ccccc2C)cs1 [PCM-0102845] | 0 | 0 | 0 | 0 | 107 | 106 | 93.4
O=C(CCl)Nc1ccc([N+](=O)[O-])cc1Br [PCM-0102848] | 0 | 0.24 | 0 | 0 | 54.1 | 68.4 | 47
C=CC(=O)N1CCCC(S(=O)(=O)N2CCOCC2)C1 (stereo not drawn) [PCM-0102849] | 0 | 0 | 0 | 0 | 107 | 97.2 | 97.9
COC(=O)c1cccc(NC(=O)CCl)c1O [PCM-0102851] | 0 | 0.1 | 0.23 | 0 | 106 | 116 | 108
O=C(CCl)Nc1cccnc1N1CCCC1 [PCM-0102852] | 0 | 0 | 0 | 0 | 106 | 100 | 115
CC(C)(C)C(=O)NNC(=O)CCl [PCM-0102855] | 0 | 0.07 | 0 | 0 | 98.2 | 93.1 | 87.8
C=CC(=O)Nc1ccccc1F [PCM-0102856] | 0 | 0 | 0 | 0 | 106 | 119 | 84
Cc1ccc(S(C)(=O)=O)cc1NC(=O)CCl [PCM-0102858] | 0 | 0 | 0 | 0 | 58.6 | 66.6 | 19.2
O=C(CCl)Nc1ccccc1N1CCCCC1 [PCM-0102860] | 0 | 0 | 0 | 0 | 111 | 109 | 97.5
Cn1cccc1C(=O)NC(=O)CCl [PCM-0102863] | 0.2 | 0 | 0 | 0 | 106 | 112 | 92.2
CN(Cc1ccsc1)C(=O)CCl [PCM-0102865] | 0 | 0.09 | 0 | 0 | 49.6 | 76.1 | 34
O=C(CCl)N(c1ccc(F)cc1)C1C=CS(=O)(=O)C1 (stereo not drawn) [PCM-0102868] | 0 | 0.34 | 0 | 0 | 27.9 | 33.4 | 6.2
